Assays:
Format in all cases: functional
Staphylococcus = assay: Antibacterial activity against Staphylococcus citrus by disc diffusion method
Escherichia coli = assay: Antibacterial activity against Escherichia coli by disk diffusion method
Klebsiella pneumoniae = assay: Antibacterial activity against Klebsiella pneumoniae by disk diffusion method
Bacillus subtilis = assay: Antibacterial activity against Bacillus subtilis by disk diffusion method

Row | Structure (SMILES) | inhibition zone (IZ) (Staphylococcus) | inhibition zone (IZ) (Escherichia coli) | inhibition zone (IZ) (Klebsiella pneumoniae) | inhibition zone (IZ) (Bacillus subtilis)
1 | CCOC(=O)C(Cc1ccccc1)N1C(=O)C(NC(=O)Cc2ccccc2)C1/C=C/c1ccccc1 (stereo not drawn) | 9 mm | <6 mm | <6 mm | >12 mm
2 | CCOC(=O)C1C(c2ccccc2)CC2C(NC(=O)c3ccccc3)C(=O)N21 (stereo not drawn) | <6 mm | <6 mm | <6 mm | <6 mm
3 | CCOC(=O)C1C(c2ccccc2)CC2C(NN3C(=O)c4ccccc4C3=O)C(=O)N21 (stereo not drawn) | <6 mm | <6 mm | <6 mm | <6 mm
4 | CCOC(=O)C(Cc1ccccc1)N1C(=O)C(NC(=O)c2ccccc2)C1/C=C/c1ccccc1 (stereo not drawn) | <6 mm | <6 mm | <6 mm | <6 mm
5 | CCOC(=O)C1C(c2ccccc2)CC2C(NC(=O)Cc3ccccc3)C(=O)N21 (stereo not drawn) | <6 mm | <6 mm | <6 mm | <6 mm
6 | CCOC(=O)C1C(c2ccccc2)CC2C(NC(=O)COc3ccccc3)C(=O)N21 (stereo not drawn) | <6 mm | <6 mm | <6 mm | <6 mm
7 | CCOC(=O)C(Cc1ccccc1)N1C(=O)C(NC(=O)COc2ccccc2)C1/C=C/c1ccccc1 (stereo not drawn) | 9 mm | <6 mm | <6 mm | >12 mm
8 | CCOC(=O)C(Cc1ccccc1)N1C(=O)C(NN2C(=O)c3ccccc3C2=O)C1C=O (stereo not drawn) | <6 mm | <6 mm | <6 mm | <6 mm
9 | CCOC(=O)C(Cc1ccccc1)N1C(=O)C(NC(=O)/C=C/c2ccccc2)C1/C=C/c1ccccc1 (stereo not drawn) | <6 mm | <6 mm | <6 mm | <6 mm
10 | CCOC(=O)C1C(c2ccccc2)CC2C(NC(=O)/C=C/c3ccccc3)C(=O)N21 (stereo not drawn) | <6 mm | <6 mm | <6 mm | <6 mm
11 | CCOC(=O)C(Cc1ccccc1)N1C(=O)C(NN2C(=O)c3ccccc3C2=O)C1CO (stereo not drawn) | <6 mm | <6 mm | <6 mm | <6 mm
12 | CCOC(=O)C(Cc1ccccc1)N1C(=O)C(NN2C(=O)c3ccccc3C2=O)C1/C=C/c1ccccc1 (stereo not drawn) | 9 mm | <6 mm | <6 mm | >12 mm

From ChEMBL document CHEMBL3045903, “Computational evaluation and experimental verification of antibacterial activity of some -lactams: advantages and limitations” (2013)
